The record followed here is US7192924B2, “Corticotropin releasing factor 2 receptor agonists” (priority 2002, dated 2007).

Ends that are not written are not given here. Peptide text beside a SMILES is read from it. Some results are limits rather than exact numbers.

The target of one experiment is T1, CRF1R (Homo sapiens, UniProt P34998).
T1 sequence (P34998 24-415): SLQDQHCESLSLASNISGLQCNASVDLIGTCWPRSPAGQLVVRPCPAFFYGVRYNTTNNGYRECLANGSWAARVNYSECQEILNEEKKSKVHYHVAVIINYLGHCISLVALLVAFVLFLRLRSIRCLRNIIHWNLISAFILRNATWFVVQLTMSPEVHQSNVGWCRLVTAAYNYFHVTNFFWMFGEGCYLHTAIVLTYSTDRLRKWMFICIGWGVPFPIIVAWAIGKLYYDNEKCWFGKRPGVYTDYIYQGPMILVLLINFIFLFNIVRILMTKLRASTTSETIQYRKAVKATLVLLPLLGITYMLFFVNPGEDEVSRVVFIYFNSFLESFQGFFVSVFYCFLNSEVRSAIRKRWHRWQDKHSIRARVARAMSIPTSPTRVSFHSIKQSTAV
In words: CRF1R agonist activity (EC50, Emax), called comparative CRF binding. The settings on record: read-out: CRF1R EC50. It counts as cell-based. An outline of the steps:
(§1)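 Receptor activation was followed through cAMP, measured in lysates or by a CRE-linked reporter, after peptide or vehicle exposure. Cells carried a single CRF receptor subtype, CRF1R or CRF2R; where both were present, background from the non-target receptor was subtracted.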

A further experiment concerns the target T2, CRF2R (Homo sapiens, UniProt Q13324).
T2 sequence (Q13324 1-411): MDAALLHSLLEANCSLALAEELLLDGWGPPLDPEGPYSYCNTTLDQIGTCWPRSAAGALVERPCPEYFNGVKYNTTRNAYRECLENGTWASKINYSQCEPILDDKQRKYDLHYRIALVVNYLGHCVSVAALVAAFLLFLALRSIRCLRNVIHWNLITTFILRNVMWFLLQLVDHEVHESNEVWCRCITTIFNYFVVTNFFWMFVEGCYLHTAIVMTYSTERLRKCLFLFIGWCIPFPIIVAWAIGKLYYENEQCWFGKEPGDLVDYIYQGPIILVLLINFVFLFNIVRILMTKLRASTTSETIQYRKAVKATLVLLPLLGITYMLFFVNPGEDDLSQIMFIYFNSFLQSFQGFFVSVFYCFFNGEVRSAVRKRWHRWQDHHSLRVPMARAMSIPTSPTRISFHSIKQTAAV
Nature of the experiment: CRF2R agonist activity (EC50, Emax), called comparative CRF binding. In kind it is cell-based. The settings on record: read-out: CRF2R EC50. An outline of the steps: as §1

For orientation: EC50 means the midpoint of the concentration-response curve. On to `CC[C@H](C)[C@H](NC(=O)[C@H](C)NC(=O)[C@H](CC(N)=O)NC(=O)[C@H](CCC(N)=O)NC(=O)[C@H](CCC(=O)O)NC(=O)[C@H](C)NC(=O)[C@H](CCCNC(=N)N)NC(=O)[C@H](CCC(=O)O)NC(=O)[C@H](CCCNC(=N)N)NC(=O)[C@H](CCC(N)=O)NC(=O)[C@H](CO)NC(=O)[C@H](CCC(N)=O)NC(=O)[C@@H](NC(=O)[C@H](CCCCN)NC(=O)[C@H](CCC(=O)O)NC(=O)[C@H](CC(C)C)NC(=O)[C@H](CCC(=O)O)NC(=O)[C@H](CC(C)C)NC(=O)[C@H](CC(C)C)NC(=O)[C@@H](NC(=O)[C@H](CCCNC(=N)N)NC(=O)[C@H](CC(C)C)NC(=O)[C@H](CC(C)C)NC(=O)[C@H](Cc1ccccc1)NC(=O)[C@H](CC(C)C)NC(=O)[C@@H]1CCCN1C(=O)[C@H](CC(C)C)NC(=O)[C@H](CC(=O)O)NC(=O)[C@@H](NC(=O)[C@H](CO)NC(=O)[C@H](CC(C)C)NC(=O)[C@H](CO)NC(=O)[C@@H]1CCCN1C(=O)[C@H](CC(N)=O)NC(=O)[C@@H](N)CC(=O)O)[C@@H](C)CC)[C@@H](C)O)[C@@H](C)O)C(=O)N[C@H](C(=O)N[C@@H](Cc1ccccc1)C(=O)N[C@@H](C)C(=O)N[C@@H](CO)C(=O)N[C@H](C(N)=O)C(C)C)[C@@H](C)CC` [compound 343] (H-DNPSLSIDLPLFLLRTLLELEKTQSQRERAEQNAIIFASV-NH2; N-terminus assumed), for which the EC50 on CRF1R was 783 nM; on CRF2R, 13.6 nM.

For `CC[C@H](C)[C@H](NC(=O)[C@H](C)NC(=O)[C@H](CC(N)=O)NC(=O)[C@H](CCC(N)=O)NC(=O)[C@H](CCC(=O)O)NC(=O)[C@H](C)NC(=O)[C@H](CCCNC(=N)N)NC(=O)[C@H](CCC(=O)O)NC(=O)[C@H](CCCNC(=N)N)NC(=O)[C@H](CCC(N)=O)NC(=O)[C@H](CO)NC(=O)[C@H](CCC(N)=O)NC(=O)[C@@H](NC(=O)[C@H](CCCCN)NC(=O)[C@H](CCC(=O)O)NC(=O)[C@H](CC(C)C)NC(=O)[C@H](CCC(=O)O)NC(=O)[C@H](CC(C)C)NC(=O)[C@H](CC(C)C)NC(=O)[C@@H](NC(=O)[C@H](CCCNC(=N)N)NC(=O)[C@H](CC(C)C)NC(=O)[C@H](CC(C)C)NC(=O)[C@H](CC(C)C)NC(=O)[C@H](CC(C)C)NC(=O)[C@@H]1CCCN1C(=O)[C@H](CC(C)C)NC(=O)[C@H](CC(=O)O)NC(=O)[C@@H](NC(=O)[C@H](CO)NC(=O)[C@H](CC(C)C)NC(=O)[C@H](CO)NC(=O)[C@@H]1CCCN1)[C@@H](C)CC)[C@@H](C)O)[C@@H](C)O)C(=O)N[C@H](C(=O)N[C@@H](Cc1ccccc1)C(=O)N[C@@H](C)C(=O)N[C@@H](CO)C(=O)N[C@H](C(N)=O)C(C)C)[C@@H](C)CC` [compound 344] (H-PSLSIDLPLLLLRTLLELEKTQSQRERAEQNAIIFASV-NH2), the EC50 amounted to 650 nM on CRF1R and 4.3 nM on CRF2R.

For `CC[C@H](C)[C@H](NC(=O)[C@H](C)NC(=O)[C@H](CC(N)=O)NC(=O)[C@H](CCC(N)=O)NC(=O)[C@H](CCC(=O)O)NC(=O)[C@H](C)NC(=O)[C@H](CCCNC(=N)N)NC(=O)[C@H](CCC(=O)O)NC(=O)[C@H](CCCNC(=N)N)NC(=O)[C@H](CCC(N)=O)NC(=O)[C@H](CO)NC(=O)[C@H](CCC(N)=O)NC(=O)[C@@H](NC(=O)[C@H](CCCCN)NC(=O)[C@H](CCC(=O)O)NC(=O)[C@H](CC(C)C)NC(=O)[C@H](CCC(=O)O)NC(=O)[C@H](CC(C)C)NC(=O)[C@H](CC(C)C)NC(=O)[C@@H](NC(=O)[C@H](CCCNC(=N)N)NC(=O)[C@H](CC(C)C)NC(=O)[C@H](CC(C)C)NC(=O)[C@H](CC(C)C)NC(=O)[C@H](CC(C)C)NC(=O)[C@@H]1CCCN1C(=O)[C@H](CC(C)C)NC(=O)[C@H](CC(=O)O)NC(=O)[C@@H](NC(=O)[C@H](CO)NC(=O)[C@H](CC(C)C)NC(=O)[C@H](CO)NC(=O)[C@@H]1CCCN1C(=O)[C@H](CC(N)=O)NC(=O)[C@@H](N)CC(=O)O)[C@@H](C)CC)[C@@H](C)O)[C@@H](C)O)C(=O)N[C@H](C(=O)N[C@@H](Cc1ccccc1)C(=O)N[C@@H](C)C(=O)N[C@@H](CO)C(=O)N[C@H](C(N)=O)C(C)C)[C@@H](C)CC` [compound 347] (H-DNPSLSIDLPLLLLRTLLELEKTQSQRERAEQNAIIFASV-NH2), the figures for the concentration giving a half-maximal response (EC50) at CRF1R and at CRF2R were no less than 1000 nM and 22.4 nM, respectively.

Take `CC[C@H](C)[C@H](N)C(=O)N[C@H](C(=O)N[C@@H](CC(C)C)C(=O)N[C@@H](CO)C(=O)N[C@@H](CC(C)C)C(=O)N[C@@H](CC(=O)O)C(=O)N[C@H](C(=O)N1CCC[C@H]1C(=O)N[C@H](C(=O)NCC(=O)N[C@@H](CC(C)C)C(=O)N[C@@H](CC(C)C)C(=O)N[C@@H](CCC(N)=O)C(=O)N[C@H](C(=O)N[C@@H](CC(C)C)C(=O)N[C@@H](CC(C)C)C(=O)N[C@@H](CCC(=O)O)C(=O)N[C@@H](CCC(N)=O)C(=O)N[C@@H](C)C(=O)N[C@@H](CCCNC(=N)N)C(=O)N[C@@H](C)C(=O)N[C@@H](CCCNC(=N)N)C(=O)N[C@@H](C)C(=O)N[C@@H](C)C(=O)N[C@@H](CCCNC(=N)N)C(=O)N[C@@H](CCC(=O)O)C(=O)N[C@@H](CCC(N)=O)C(=O)N[C@@H](C)C(=O)N[C@H](C(=O)N[C@H](C(=O)N[C@@H](CC(N)=O)C(=O)N[C@@H](C)C(=O)N[C@@H](CCCNC(=N)N)C(=O)N[C@H](C(=O)N[C@@H](CC(C)C)C(=O)N[C@@H](C)C(=O)N[C@@H](CCCNC(=N)N)C(=O)N[C@H](C(=O)N[C@@H](CCSC)C(N)=O)C(C)C)[C@@H](C)CC)[C@@H](C)O)[C@@H](C)O)[C@@H](C)CC)[C@@H](C)CC)C(C)C)C(C)C` [compound 368] (H-IVLSLDVPIGLLQILLEQARARAAREQATTNARILARVM-NH2): the EC50 on CRF1R is no less than 1000 nM; at CRF2R, 50.4 nM.

Take `CC[C@H](C)[C@H](N)C(=O)N[C@H](C(=O)N[C@@H](CC(C)C)C(=O)N[C@@H](CO)C(=O)N[C@@H](CC(C)C)C(=O)N[C@@H](CC(=O)O)C(=O)N[C@H](C(=O)N1CCC[C@H]1C(=O)N[C@H](C(=O)N[C@@H](Cc1c[nH]cn1)C(=O)N[C@@H](CC(C)C)C(=O)N[C@@H](CC(C)C)C(=O)N[C@@H](CCC(N)=O)C(=O)N[C@H](C(=O)N[C@@H](CC(C)C)C(=O)N[C@@H](CC(C)C)C(=O)N[C@@H](CCC(=O)O)C(=O)N[C@@H](CCC(N)=O)C(=O)N[C@@H](C)C(=O)N[C@@H](CCCNC(=N)N)C(=O)N[C@@H](C)C(=O)N[C@@H](CCCNC(=N)N)C(=O)N[C@@H](C)C(=O)N[C@@H](C)C(=O)N[C@@H](CCCNC(=N)N)C(=O)N[C@@H](CCC(=O)O)C(=O)N[C@@H](CCC(N)=O)C(=O)N[C@@H](C)C(=O)N[C@H](C(=O)N[C@H](C(=O)N[C@@H](CC(N)=O)C(=O)N[C@@H](C)C(=O)N[C@@H](CCCNC(=N)N)C(=O)N[C@H](C(=O)N[C@@H](CC(C)C)C(=O)N[C@@H](C)C(=O)N[C@@H](CCCNC(=N)N)C(=O)N[C@H](C(N)=O)C(C)C)[C@@H](C)CC)[C@@H](C)O)[C@@H](C)O)[C@@H](C)CC)[C@@H](C)CC)C(C)C)C(C)C` [compound 371] (H-IVLSLDVPIHLLQILLEQARARAAREQATTNARILARV-NH2; N-terminus assumed): the EC50 was no less than 1000 nM on CRF1R and 6.62 nM on CRF2R.

Regarding `CC[C@H](C)[C@H](NC(=O)[C@H](CCCNC(=N)N)NC(=O)[C@H](C)NC(=O)[C@H](CC(N)=O)NC(=O)[C@H](CCC(N)=O)NC(=O)[C@H](CCC(=O)O)NC(=O)[C@H](C)NC(=O)[C@H](CCCNC(=N)N)NC(=O)[C@H](CCC(=O)O)NC(=O)[C@H](CCCNC(=N)N)NC(=O)[C@H](CCC(N)=O)NC(=O)[C@H](CO)NC(=O)[C@H](CCC(N)=O)NC(=O)[C@@H](NC(=O)[C@H](CCCCN)NC(=O)[C@H](CCC(=O)O)NC(=O)[C@H](CC(C)C)NC(=O)[C@H](CCC(=O)O)NC(=O)[C@H](CC(C)C)NC(=O)[C@H](CC(C)C)NC(=O)[C@@H](NC(=O)[C@H](CCCNC(=N)N)NC(=O)[C@H](CC(C)C)NC(=O)[C@H](CC(C)C)NC(=O)[C@H](CC(C)C)NC(=O)[C@H](CC(C)C)NC(=O)[C@@H]1CCCN1C(=O)[C@@H](NC(=O)[C@H](CC(=O)O)NC(=O)[C@@H](NC(=O)[C@H](CO)NC(=O)[C@H](CC(C)C)NC(=O)[C@H](CO)NC(=O)[C@@H]1CCCN1C(=O)[C@H](CC(N)=O)NC(=O)[C@@H](N)CC(=O)O)[C@@H](C)CC)C(C)C)[C@@H](C)O)[C@@H](C)O)C(=O)N[C@@H](Cc1ccccc1)C(=O)N[C@@H](C)C(=O)N[C@@H](CCCNC(=N)N)C(=O)N[C@H](C(N)=O)C(C)C` [compound 384] (H-DNPSLSIDVPLLLLRTLLELEKTQSQRERAEQNARIFARV-NH2; N-terminus assumed), the EC50 was no less than 1000 nM at CRF1R and 7.1 nM at CRF2R.

Take “HHHHHHIVLSLDVPIGLLQILLEQARARAAREQATTNARILARN-NH2 [compound 296]”: the EC50 at CRF1R is no less than 100 nM; at CRF2R it was 6.66 nM.

Take “NDDPPISIDLPFFLLRNMIEMARIENEREQAGLNAKYLAEV-NH2 [compound 264]”: the EC50 on CRF1R was 704 nM; on CRF2R, no less than 100 nM.

Take “NDDPPISIDLPFHLLRNMIEMARIENEREQAGLNAKYLAEV-NH2 [compound 262]”: the concentration for a half-maximal effect (EC50) at CRF1R is 408 nM; on CRF2R, no less than 100 nM.

Regarding “NDDPPISIDLPFYLLRNMIEMARIENEREQAGLNAKYLAEV-NH2 [compound 261]”, the concentration for a half-maximal effect (EC50) is 274 nM on CRF1R and no less than 100 nM on CRF2R.
